Data: US8173843B2, “Amphiphilic derivatives of α-C-phenyl-N-tert-butylnitrone” (TS Pharma, priority 2006, dated 2012)

How the values were obtained:
[1] = oxidative aging tests; Poeggeler et al. 2005; cited from earlier work
[2] = system: gerbils; conditions: after injection in gerbils; Oliver et al. 1990; cited from earlier work
[3] = system: Sprague-Dawley rat embryo cortex cell cultures; assay: Hydrogen peroxide-induced apoptotic cell death, viability of cortex cell cultures; type: cell-based; conditions: compound at 10 μM; hydrogen peroxide 50 to 200 μM; preliminary results
Experimental: (§1) The biological tests were carried out according to the procedures described in Journal of Neurochemistry, 2005, 95, 962-973. In order to evaluate the potentialities of these novel derivatives, we measured the ability of compound 10 to reduce and prevent apoptotic cell death phenomena. Hydrogen peroxide is very widely used as an apoptosis inducer in many cell models. Thus, the viability of Sprague-Dawley rat embryo cortex cell cultures is greatly impaired after treatment with hydrogen peroxide at concentrations of 50 to 200 μM. […] These same cultures were also subjected to a mitochondria-selective oxidative stress inducer, doxorubicin (Kotamraju S.; Konorev E. A.; Joseph J.; Kalyanaraman B. J. Biol. Chem. 2000, 275, 33 585-33 592). The observations are the same as for the induction with hydrogen peroxide. […] These preliminary results underline the great ability of compound 10 to prevent apoptosis phenomena induced at varying cell levels. […] A dysfunction of the mitochondrion, the central organelle in the control of apoptosis is involved in a very wide variety of pathological conditions. The anti-apoptotic properties of derivative 10 combined with its incorporation into the mitochondrion make it possible to envision its use in the fields mentioned above.

[4] = system: Sprague-Dawley rat embryo cortex cell cultures; assay: Doxorubicin (mitochondria-selective oxidative stress inducer)-induced cell death, viability of cortex cell cultures; type: cell-based; conditions: doxorubicin-induced mitochondrial oxidative stress; preliminary results
Experimental: as §1

[5] = literature; cited from earlier work

SMILES | biological activity compared with PBN [1] | damage caused by cerebral ischemia [2] | restoration of viability of cultures after hydrogen peroxide treatment [3] | protection against cell death / cell viability under doxorubicin [4] | neuroprotective activity compared with PBN [5]
CCCCCCCC(=O)NCC(C)(C)[N+]([O-])=Cc1ccc(CNC(=O)[C@H](OC(C)=O)[C@@H](OC(C)=O)[C@H](O[C@@H]2O[C@H](COC(C)=O)[C@H](OC(C)=O)[C@H](OC(C)=O)[C@H]2OC(C)=O)[C@@H](COC(C)=O)OC(C)=O)cc1 [LPBNAH, N-[4-(octa-O-acetyllactobionamidomethylene)benzylidene]-N-[1,1-dimethyl-2-(N-octanoyl)amido]ethylamine N-oxide] | biological activity greater than that of PBN |  |  |  | 
CC(C)(C)[N+]([O-])=Cc1ccccc1 [PBN, α-C-phenyl-N-tert-butylnitrone] |  | decrease in the damage caused by cerebral ischemia | very incompletely restore the viability | only a partial protection against cell death | 
CCCCCCCC(=O)NCc1ccc(/C=[N+](\[O-])C(C)(C)CNC(=O)C(O)[C@H](O)[C@H](O[C@@H]2OC(CO)[C@H](O)C(O)C2O)C(O)CO)cc1 (stereo partly shown) [Compound 10] |  |  | completely restore the viability | allows the cell viability to be completely maintained | 
CC(C)(C)[N+]([O-])=Cc1ccc(S(=O)(=O)[O-])cc1S(=O)(=O)[O-].[Na+].[Na+] [NXY-059] |  |  |  |  | neuroprotective activity greater than PBN
